Holding throughout (assay): relative viability (nuclei count vs DMSO), 5 days (fraction); higher = more cells survive
Compound in the test “Kobe2602 + Navitoclax”: C1=CC(=CC=C1NC(=S)NNC2=C(C=C(C=C2[N+](=O)[O-])C(F)(F)F)[N+](=O)[O-])F [Kobe2602] + CC1(C)CCC(c2ccc(Cl)cc2)=C(CN2CCN(c3ccc(C(=O)NS(=O)(=O)c4ccc(N[C@H](CCN5CCOCC5)CSc5ccccc5)c(S(=O)(=O)C(F)(F)F)c4)cc3)CC2)C1 [Navitoclax] (partner 0.5 µM)
The gist of the method: (§1)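 Lung cancer cell lines, seeded in 1536-well plates, were treated the following day by pin tool with a single drug or with five library-drug doses (not always all listed) in √10 steps on top of a fixed anchor-drug dose. Cells were fixed and nuclei stained in one step after 5 days, and nuclei were counted. Relative viability is the nuclei count for treated wells divided by that for vehicle wells, reported as medians of duplicate plates.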

Compound in the test “Zosuquidar + Navitoclax”: O[C@@H](COc1cccc2ncccc12)CN1CCN([C@@H]2c3ccccc3[C@@H]3[C@H](c4ccccc42)C3(F)F)CC1 [Zosuquidar] + CC1(C)CCC(c2ccc(Cl)cc2)=C(CN2CCN(c3ccc(C(=O)NS(=O)(=O)c4ccc(N[C@H](CCN5CCOCC5)CSc5ccccc5)c(S(=O)(=O)C(F)(F)F)c4)cc3)CC2)C1 [Navitoclax] (partner 0.5 µM)
In outline: as §1

Compound in the test “Zosuquidar + Tozasertib”: O[C@@H](COc1cccc2ncccc12)CN1CCN([C@@H]2c3ccccc3[C@@H]3[C@H](c4ccccc42)C3(F)F)CC1 [Zosuquidar] + Cc1cc(Nc2cc(N3CCN(C)CC3)nc(Sc3ccc(NC(=O)C4CC4)cc3)n2)n[nH]1 [Tozasertib] (partner 0.1 µM)
In outline: as §1

Compound in the test “Zosuquidar + Alpelisib”: O[C@@H](COc1cccc2ncccc12)CN1CCN([C@@H]2c3ccccc3[C@@H]3[C@H](c4ccccc42)C3(F)F)CC1 [Zosuquidar] + Cc1nc(NC(=O)N2CCC[C@H]2C(N)=O)sc1-c1ccnc(C(C)(C)C(F)(F)F)c1 [Alpelisib] (partner 2 µM)
In outline:
as §1

Results on eight cell lines are retold here after the supplement of paper PMC10307832.

Take COR-L 105: the relative viability with Kobe2602 + Navitoclax (first compound 0.2 µM) was 0.525; in the test with Kobe2602 + Navitoclax (first compound 0.6325 µM), 0.756; with Kobe2602 + Navitoclax (first compound 2 µM), 0.786; with Kobe2602 + Navitoclax (first compound 6.325 µM) it was 0.909; in the test with Kobe2602 + Navitoclax (first compound 20 µM), 0.784; with Zosuquidar + Navitoclax (first compound 0.01 µM) it was 0.944. Further, the relative viability with Zosuquidar + Navitoclax (first compound 0.03162 µM) worked out at 0.638; with Zosuquidar + Navitoclax (first compound 0.1 µM), 0.725; with Zosuquidar + Navitoclax (first compound 0.3162 µM), 0.968; with Zosuquidar + Navitoclax (first compound 1 µM) it was 0.631; with Zosuquidar + Tozasertib (first compound 0.01 µM), 0.293; with Zosuquidar + Tozasertib (first compound 0.03162 µM), 0.315. Moreover, the relative viability in the test with Zosuquidar + Tozasertib (first compound 0.1 µM) is 0.402; in the test with Zosuquidar + Tozasertib (first compound 0.3162 µM), 0.309; with Zosuquidar + Tozasertib (first compound 1 µM), 0.333; with Zosuquidar + Alpelisib (first compound 0.01 µM), 1.07; with Zosuquidar + Alpelisib (first compound 0.03162 µM), 0.852; with Zosuquidar + Alpelisib (first compound 0.1 µM) it was 1.11. The relative viability with Zosuquidar + Alpelisib (first compound 0.3162 µM) came to 1.07; with Zosuquidar + Alpelisib (first compound 1 µM), 1.12.
With Calu-6, the relative viability was found to be 0.818 with Kobe2602 + Navitoclax (first compound 0.2 µM); 0.875 in the test with Kobe2602 + Navitoclax (first compound 0.6325 µM); 0.866 with Kobe2602 + Navitoclax (first compound 2 µM); 0.826 with Kobe2602 + Navitoclax (first compound 6.325 µM); 0.744 with Kobe2602 + Navitoclax (first compound 20 µM); 0.88 in the test with Zosuquidar + Navitoclax (first compound 0.01 µM). Moreover, the relative viability with Zosuquidar + Navitoclax (first compound 0.03162 µM) stood at 0.81; in the test with Zosuquidar + Navitoclax (first compound 0.1 µM), 0.895; in the test with Zosuquidar + Navitoclax (first compound 0.3162 µM), 0.86; in the test with Zosuquidar + Navitoclax (first compound 1 µM) it was 0.813; with Zosuquidar + Alpelisib (first compound 0.01 µM), 0.938; with Zosuquidar + Alpelisib (first compound 0.03162 µM) it was 0.972. In addition, the relative viability with Zosuquidar + Alpelisib (first compound 0.1 µM) stood at 1.01; with Zosuquidar + Alpelisib (first compound 0.3162 µM), 1.12; with Zosuquidar + Alpelisib (first compound 1 µM), 0.879.
Regarding ChaGo-K-1, the relative viability was found to be 1.12 with Kobe2602 + Navitoclax (first compound 0.2 µM); 1.26 with Kobe2602 + Navitoclax (first compound 0.6325 µM); 1.02 in the test with Kobe2602 + Navitoclax (first compound 2 µM); 1.05 with Kobe2602 + Navitoclax (first compound 6.325 µM); 0.933 with Kobe2602 + Navitoclax (first compound 20 µM); 1.14 with Zosuquidar + Navitoclax (first compound 0.01 µM). The relative viability in the test with Zosuquidar + Navitoclax (first compound 0.03162 µM) worked out at 0.971; in the test with Zosuquidar + Navitoclax (first compound 0.1 µM), 1.28; with Zosuquidar + Navitoclax (first compound 0.3162 µM), 1.09; in the test with Zosuquidar + Navitoclax (first compound 1 µM) it was 0.964; with Zosuquidar + Tozasertib (first compound 0.01 µM) it was 0.227; with Zosuquidar + Tozasertib (first compound 0.03162 µM), 0.217. Also, the values for the relative viability in the test with Zosuquidar + Tozasertib (first compound 0.1 µM), with Zosuquidar + Tozasertib (first compound 0.3162 µM) and in the test with Zosuquidar + Tozasertib (first compound 1 µM) were 0.261, 0.204 and 0.227, respectively.
As for EBC-1, the relative viability was 0.373 with Kobe2602 + Navitoclax (first compound 0.2 µM); 0.488 with Kobe2602 + Navitoclax (first compound 0.6325 µM); 0.436 with Kobe2602 + Navitoclax (first compound 2 µM); 0.452 in the test with Kobe2602 + Navitoclax (first compound 6.325 µM); 0.483 with Kobe2602 + Navitoclax (first compound 20 µM); 0.451 with Zosuquidar + Navitoclax (first compound 0.01 µM). Moreover, the relative viability was 0.417 with Zosuquidar + Navitoclax (first compound 0.03162 µM); 0.466 with Zosuquidar + Navitoclax (first compound 0.1 µM); 0.493 with Zosuquidar + Navitoclax (first compound 0.3162 µM); 0.417 with Zosuquidar + Navitoclax (first compound 1 µM); 0.83 in the test with Zosuquidar + Alpelisib (first compound 0.01 µM); 0.842 in the test with Zosuquidar + Alpelisib (first compound 0.03162 µM). Further, the relative viability with Zosuquidar + Alpelisib (first compound 0.1 µM) amounted to 0.794; with Zosuquidar + Alpelisib (first compound 0.3162 µM), 1.09; with Zosuquidar + Alpelisib (first compound 1 µM), 0.779.
On to EKVX, for which the relative viability with Kobe2602 + Navitoclax (first compound 0.2 µM) was found to be 0.926; with Kobe2602 + Navitoclax (first compound 0.6325 µM), 0.926; with Kobe2602 + Navitoclax (first compound 2 µM), 0.955; with Kobe2602 + Navitoclax (first compound 6.325 µM), 0.88; in the test with Kobe2602 + Navitoclax (first compound 20 µM), 0.9; with Zosuquidar + Navitoclax (first compound 0.01 µM) it was 0.93. For the same cell line, the relative viability was 0.938 with Zosuquidar + Navitoclax (first compound 0.03162 µM); 0.842 with Zosuquidar + Navitoclax (first compound 0.1 µM); 1.03 in the test with Zosuquidar + Navitoclax (first compound 0.3162 µM); 0.899 with Zosuquidar + Navitoclax (first compound 1 µM); 0.394 in the test with Zosuquidar + Tozasertib (first compound 0.01 µM); 0.436 in the test with Zosuquidar + Tozasertib (first compound 0.03162 µM). For the same cell line, the relative viability came to 0.389 with Zosuquidar + Tozasertib (first compound 0.1 µM); 0.369 with Zosuquidar + Tozasertib (first compound 0.3162 µM); 0.348 in the test with Zosuquidar + Tozasertib (first compound 1 µM); 0.887 in the test with Zosuquidar + Alpelisib (first compound 0.01 µM); 0.846 with Zosuquidar + Alpelisib (first compound 0.03162 µM); 0.634 with Zosuquidar + Alpelisib (first compound 0.1 µM). The figures for the relative viability with Zosuquidar + Alpelisib (first compound 0.3162 µM) and with Zosuquidar + Alpelisib (first compound 1 µM) were 0.781 and 0.94, respectively.
Take EMC-BAC-2: the relative viability worked out at 1.16 with Kobe2602 + Navitoclax (first compound 0.2 µM); 1.17 with Kobe2602 + Navitoclax (first compound 0.6325 µM); 1.11 with Kobe2602 + Navitoclax (first compound 2 µM); 1.13 with Kobe2602 + Navitoclax (first compound 6.325 µM); 1.16 with Kobe2602 + Navitoclax (first compound 20 µM); 1.19 with Zosuquidar + Navitoclax (first compound 0.01 µM). Moreover, the relative viability in the test with Zosuquidar + Navitoclax (first compound 0.03162 µM) worked out at 0.795; with Zosuquidar + Navitoclax (first compound 0.1 µM), 1.05; with Zosuquidar + Navitoclax (first compound 0.3162 µM), 1.18; in the test with Zosuquidar + Navitoclax (first compound 1 µM), 1.12; with Zosuquidar + Tozasertib (first compound 0.01 µM) it was 0.278; with Zosuquidar + Tozasertib (first compound 0.03162 µM) it was 0.33. The relative viability with Zosuquidar + Tozasertib (first compound 0.1 µM) is 0.285; with Zosuquidar + Tozasertib (first compound 0.3162 µM) it was 0.274; with Zosuquidar + Tozasertib (first compound 1 µM), 0.261; with Zosuquidar + Alpelisib (first compound 0.01 µM), 0.715; in the test with Zosuquidar + Alpelisib (first compound 0.03162 µM), 0.793; with Zosuquidar + Alpelisib (first compound 0.1 µM), 0.677. Besides, the relative viability in the test with Zosuquidar + Alpelisib (first compound 0.3162 µM) is 0.82; with Zosuquidar + Alpelisib (first compound 1 µM) it was 0.761.
Take EPLC-272H: the relative viability with Kobe2602 + Navitoclax (first compound 0.2 µM) is 1.07; with Kobe2602 + Navitoclax (first compound 0.6325 µM), 1.17; in the test with Kobe2602 + Navitoclax (first compound 2 µM), 1.21; with Kobe2602 + Navitoclax (first compound 6.325 µM) it was 1.45; with Kobe2602 + Navitoclax (first compound 20 µM), 0.045; with Zosuquidar + Navitoclax (first compound 0.01 µM), 1.08. Moreover, the relative viability with Zosuquidar + Navitoclax (first compound 0.03162 µM) turned out to be 1.28; with Zosuquidar + Navitoclax (first compound 0.1 µM) it was 1.1; with Zosuquidar + Navitoclax (first compound 0.3162 µM), 1.07; with Zosuquidar + Navitoclax (first compound 1 µM), 0.984; in the test with Zosuquidar + Tozasertib (first compound 0.01 µM), 0.192; in the test with Zosuquidar + Tozasertib (first compound 0.03162 µM), 0.245. Besides, the relative viability with Zosuquidar + Tozasertib (first compound 0.1 µM) was 0.358; in the test with Zosuquidar + Tozasertib (first compound 0.3162 µM), 0.261; with Zosuquidar + Tozasertib (first compound 1 µM), 0.253; with Zosuquidar + Alpelisib (first compound 0.01 µM), 0.946; with Zosuquidar + Alpelisib (first compound 0.03162 µM) it was 0.999; with Zosuquidar + Alpelisib (first compound 0.1 µM), 0.801. Besides, the relative viability in the test with Zosuquidar + Alpelisib (first compound 0.3162 µM) is 0.936; with Zosuquidar + Alpelisib (first compound 1 µM) it was 0.805.
As for H3255, the relative viability with Kobe2602 + Navitoclax (first compound 0.2 µM) came to 0.521; with Kobe2602 + Navitoclax (first compound 0.6325 µM), 0.562; in the test with Kobe2602 + Navitoclax (first compound 2 µM), 0.516; in the test with Kobe2602 + Navitoclax (first compound 6.325 µM), 0.558; in the test with Kobe2602 + Navitoclax (first compound 20 µM), 0.548; in the test with Zosuquidar + Navitoclax (first compound 0.01 µM), 0.513. The relative viability with Zosuquidar + Navitoclax (first compound 0.03162 µM) was found to be 0.492; with Zosuquidar + Navitoclax (first compound 0.1 µM), 0.537; with Zosuquidar + Navitoclax (first compound 0.3162 µM), 0.608; with Zosuquidar + Navitoclax (first compound 1 µM) it was 0.436; in the test with Zosuquidar + Tozasertib (first compound 0.01 µM), 0.734; with Zosuquidar + Tozasertib (first compound 0.03162 µM), 0.737. For the same cell line, the relative viability in the test with Zosuquidar + Tozasertib (first compound 0.1 µM) stood at 0.718; with Zosuquidar + Tozasertib (first compound 0.3162 µM), 0.711; with Zosuquidar + Tozasertib (first compound 1 µM), 0.604; in the test with Zosuquidar + Alpelisib (first compound 0.01 µM) it was 0.712; in the test with Zosuquidar + Alpelisib (first compound 0.03162 µM) it was 0.769; with Zosuquidar + Alpelisib (first compound 0.1 µM), 0.492. For the same cell line, the relative viability with Zosuquidar + Alpelisib (first compound 0.3162 µM) came to 0.797; with Zosuquidar + Alpelisib (first compound 1 µM), 0.689.
